{"source": "paper PMC11897524", "about": "(Frontiers in Pharmacology, 2025)", "test_in_all_cases": "SelectScreen Z′-LYTE kinase assay", "format_in_all_cases": "biochemical", "key": {"ABL2": {"target": "ABL2 (Homo sapiens, UniProt P42684)", "description": "(§1) The kinase selectivity profile of BST-4 was performed by the SelectScreen kinase profiling service (Thermo Fisher Scientific). Kinase selectivity assay was performed using Z′-LYTE ™ screening protocol kit. Briefly, the test compounds were screened in 1% DMSO (final). For 10-point titrations, perform a 3-fold dilution starting at a starting concentration of 50 µM. Then 2.5 µL 4× test compound, 2.4 µL kinase buffer, 5 µL 2× kinase mixture and 2.5 µL 4× ATP solution was added in black 384-well plate. After shaking for 30 s, the plates were incubated for 60 min at room temperature. Add developing reagent solution and shake the plate for 30 s, then incubate for 1 h at room temperature. The Fluorescence intensity per well was read using a fluorescence plate reader. SelectScreen® Kinase Profiling Service used XLfit from IDBS. The dose response curve was curve fit to model number 205 (sigmoidal dose-response model) and inhibition rates were calculated. 50% inhibition was used as a activity threshold. IC50 values were calculated based on curve fitting."}, "CSK": {"target": "CSK (Homo sapiens, UniProt P41240)", "sequence (P41240 whole entry)": "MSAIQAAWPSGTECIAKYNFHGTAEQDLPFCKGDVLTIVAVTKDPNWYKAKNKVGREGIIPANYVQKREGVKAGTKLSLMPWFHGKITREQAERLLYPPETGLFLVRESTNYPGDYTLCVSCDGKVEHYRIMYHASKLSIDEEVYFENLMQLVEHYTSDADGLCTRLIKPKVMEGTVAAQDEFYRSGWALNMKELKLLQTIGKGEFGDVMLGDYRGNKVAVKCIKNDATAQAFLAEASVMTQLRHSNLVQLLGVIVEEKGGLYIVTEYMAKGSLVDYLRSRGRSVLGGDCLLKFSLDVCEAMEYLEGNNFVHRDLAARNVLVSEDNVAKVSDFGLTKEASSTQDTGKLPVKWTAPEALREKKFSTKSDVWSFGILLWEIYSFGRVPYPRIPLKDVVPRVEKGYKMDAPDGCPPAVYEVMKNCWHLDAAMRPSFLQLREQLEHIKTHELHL", "description": "as §1"}, "EGFR": {"target": "EGFR (Homo sapiens, UniProt P00533)", "description": "as §1"}, "EPHA1": {"target": "EPHA1 (Homo sapiens, UniProt P21709)", "description": "as §1"}, "EPHA2": {"target": "EPHA2 (Homo sapiens, UniProt P29317)", "description": "as §1"}, "EPHA3": {"target": "EPHA3 (Homo sapiens, UniProt P29320)", "description": "as §1"}, "EPHA5": {"target": "EPHA5 (Homo sapiens, UniProt P54756)", "description": "as §1"}, "EPHB2": {"target": "EPHB2 (Homo sapiens, UniProt P29323)", "sequence (P29323 19-1055)": "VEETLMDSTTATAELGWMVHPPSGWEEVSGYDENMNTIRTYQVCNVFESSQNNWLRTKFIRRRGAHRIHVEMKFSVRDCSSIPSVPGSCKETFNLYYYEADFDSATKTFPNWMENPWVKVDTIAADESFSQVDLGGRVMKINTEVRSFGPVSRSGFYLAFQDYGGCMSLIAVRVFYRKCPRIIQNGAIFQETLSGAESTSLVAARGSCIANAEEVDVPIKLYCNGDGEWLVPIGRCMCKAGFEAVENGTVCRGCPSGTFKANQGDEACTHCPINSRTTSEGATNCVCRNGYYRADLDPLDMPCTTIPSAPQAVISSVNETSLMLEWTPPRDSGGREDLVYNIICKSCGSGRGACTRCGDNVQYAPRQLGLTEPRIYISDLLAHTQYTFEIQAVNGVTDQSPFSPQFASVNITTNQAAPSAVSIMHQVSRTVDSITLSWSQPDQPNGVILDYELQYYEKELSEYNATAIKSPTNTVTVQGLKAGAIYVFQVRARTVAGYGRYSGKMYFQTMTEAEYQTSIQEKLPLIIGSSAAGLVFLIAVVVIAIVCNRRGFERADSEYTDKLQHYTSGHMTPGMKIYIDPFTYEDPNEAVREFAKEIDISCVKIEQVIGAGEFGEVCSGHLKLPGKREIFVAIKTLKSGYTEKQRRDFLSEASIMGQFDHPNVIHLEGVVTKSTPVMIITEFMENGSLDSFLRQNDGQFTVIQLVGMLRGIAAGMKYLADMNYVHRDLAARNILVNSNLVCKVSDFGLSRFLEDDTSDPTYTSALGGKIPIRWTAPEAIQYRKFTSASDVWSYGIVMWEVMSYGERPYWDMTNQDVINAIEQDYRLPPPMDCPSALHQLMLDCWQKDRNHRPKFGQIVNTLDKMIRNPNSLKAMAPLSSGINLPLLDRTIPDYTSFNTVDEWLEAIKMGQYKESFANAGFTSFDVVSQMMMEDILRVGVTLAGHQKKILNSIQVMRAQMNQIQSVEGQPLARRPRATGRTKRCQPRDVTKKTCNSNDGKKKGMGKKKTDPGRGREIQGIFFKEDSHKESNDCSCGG", "description": "as §1"}, "EPHB3": {"target": "EPHB3 (Homo sapiens, UniProt P54753)", "description": "as §1"}, "EPHB4": {"target": "EPHB4 (Homo sapiens, UniProt P54760)", "description": "as §1"}, "ERBB2": {"target": "ERBB2 (Homo sapiens, UniProt P04626)", "description": "as §1"}, "ERBB4": {"target": "ERBB4 (Homo sapiens, UniProt Q15303)", "description": "as §1"}, "ITK": {"target": "ITK (Homo sapiens, UniProt Q08881)", "description": "as §1"}, "JAK3": {"target": "JAK3 (Homo sapiens, UniProt P52333)", "description": "as §1"}, "KDR": {"target": "KDR (Homo sapiens, UniProt P35968)", "description": "as §1"}, "LTK": {"target": "LTK (Homo sapiens, UniProt P29376)", "description": "as §1"}, "LYN": {"target": "LYN (Homo sapiens, UniProt P07948)", "description": "as §1"}, "MERTK": {"target": "MERTK (Homo sapiens, UniProt Q12866)", "description": "as §1"}, "MET": {"target": "MET (Homo sapiens, UniProt P08581)", "description": "as §1"}, "MST1R": {"target": "MST1R (Homo sapiens, UniProt Q04912)", "description": "as §1"}, "NTRK2": {"target": "NTRK2 (Homo sapiens, UniProt Q16620)", "sequence (Q16620 32-822)": "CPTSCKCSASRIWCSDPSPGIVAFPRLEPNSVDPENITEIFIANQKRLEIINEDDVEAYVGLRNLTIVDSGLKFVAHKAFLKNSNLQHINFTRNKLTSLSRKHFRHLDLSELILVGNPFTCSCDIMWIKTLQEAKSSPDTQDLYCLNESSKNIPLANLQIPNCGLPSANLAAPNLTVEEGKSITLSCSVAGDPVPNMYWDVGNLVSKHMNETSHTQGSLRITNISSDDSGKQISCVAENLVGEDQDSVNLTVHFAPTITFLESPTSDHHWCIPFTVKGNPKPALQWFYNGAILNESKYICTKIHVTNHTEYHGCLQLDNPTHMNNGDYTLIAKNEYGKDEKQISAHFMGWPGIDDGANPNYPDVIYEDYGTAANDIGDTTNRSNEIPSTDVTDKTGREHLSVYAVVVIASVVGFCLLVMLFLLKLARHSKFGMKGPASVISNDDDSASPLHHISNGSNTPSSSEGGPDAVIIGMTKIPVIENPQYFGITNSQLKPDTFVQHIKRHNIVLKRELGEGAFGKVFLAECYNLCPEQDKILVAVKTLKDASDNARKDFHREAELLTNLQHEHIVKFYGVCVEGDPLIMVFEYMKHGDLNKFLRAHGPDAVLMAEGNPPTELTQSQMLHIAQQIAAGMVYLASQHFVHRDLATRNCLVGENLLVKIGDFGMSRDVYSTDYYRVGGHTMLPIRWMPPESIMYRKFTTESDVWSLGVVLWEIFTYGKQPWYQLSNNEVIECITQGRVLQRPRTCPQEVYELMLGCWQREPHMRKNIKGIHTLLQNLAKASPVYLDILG", "description": "as §1"}, "PTK2": {"target": "PTK2 (Homo sapiens, UniProt Q05397)", "description": "as §1"}, "PTK2B": {"target": "PTK2B (Homo sapiens, UniProt Q14289)", "description": "as §1"}, "PTK6": {"target": "PTK6 (Homo sapiens, UniProt Q13882)", "sequence (Q13882 whole entry)": "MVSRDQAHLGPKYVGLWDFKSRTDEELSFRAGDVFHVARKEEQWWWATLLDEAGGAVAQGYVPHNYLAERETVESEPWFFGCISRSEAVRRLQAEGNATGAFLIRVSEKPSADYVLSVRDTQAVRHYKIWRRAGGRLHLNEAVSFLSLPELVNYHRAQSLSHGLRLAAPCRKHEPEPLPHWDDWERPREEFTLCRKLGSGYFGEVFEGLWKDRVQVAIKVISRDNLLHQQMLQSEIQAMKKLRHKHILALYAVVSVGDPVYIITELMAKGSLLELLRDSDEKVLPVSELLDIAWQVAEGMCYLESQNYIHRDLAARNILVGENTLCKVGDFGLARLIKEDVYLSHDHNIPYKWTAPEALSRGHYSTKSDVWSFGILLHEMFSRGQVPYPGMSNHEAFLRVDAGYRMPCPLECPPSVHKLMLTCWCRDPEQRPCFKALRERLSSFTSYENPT", "description": "as §1"}, "ROS1": {"target": "ROS1 (Homo sapiens, UniProt P08922)", "description": "as §1"}, "SYK": {"target": "SYK (Homo sapiens, UniProt P43405)", "description": "as §1"}, "TEC": {"target": "TEC (Homo sapiens, UniProt P42680)", "description": "as §1"}, "TNK2": {"target": "TNK2 (Homo sapiens, UniProt Q07912)", "description": "as §1"}, "TYK2": {"target": "TYK2 (Homo sapiens, UniProt P29597)", "sequence (P29597 whole entry)": "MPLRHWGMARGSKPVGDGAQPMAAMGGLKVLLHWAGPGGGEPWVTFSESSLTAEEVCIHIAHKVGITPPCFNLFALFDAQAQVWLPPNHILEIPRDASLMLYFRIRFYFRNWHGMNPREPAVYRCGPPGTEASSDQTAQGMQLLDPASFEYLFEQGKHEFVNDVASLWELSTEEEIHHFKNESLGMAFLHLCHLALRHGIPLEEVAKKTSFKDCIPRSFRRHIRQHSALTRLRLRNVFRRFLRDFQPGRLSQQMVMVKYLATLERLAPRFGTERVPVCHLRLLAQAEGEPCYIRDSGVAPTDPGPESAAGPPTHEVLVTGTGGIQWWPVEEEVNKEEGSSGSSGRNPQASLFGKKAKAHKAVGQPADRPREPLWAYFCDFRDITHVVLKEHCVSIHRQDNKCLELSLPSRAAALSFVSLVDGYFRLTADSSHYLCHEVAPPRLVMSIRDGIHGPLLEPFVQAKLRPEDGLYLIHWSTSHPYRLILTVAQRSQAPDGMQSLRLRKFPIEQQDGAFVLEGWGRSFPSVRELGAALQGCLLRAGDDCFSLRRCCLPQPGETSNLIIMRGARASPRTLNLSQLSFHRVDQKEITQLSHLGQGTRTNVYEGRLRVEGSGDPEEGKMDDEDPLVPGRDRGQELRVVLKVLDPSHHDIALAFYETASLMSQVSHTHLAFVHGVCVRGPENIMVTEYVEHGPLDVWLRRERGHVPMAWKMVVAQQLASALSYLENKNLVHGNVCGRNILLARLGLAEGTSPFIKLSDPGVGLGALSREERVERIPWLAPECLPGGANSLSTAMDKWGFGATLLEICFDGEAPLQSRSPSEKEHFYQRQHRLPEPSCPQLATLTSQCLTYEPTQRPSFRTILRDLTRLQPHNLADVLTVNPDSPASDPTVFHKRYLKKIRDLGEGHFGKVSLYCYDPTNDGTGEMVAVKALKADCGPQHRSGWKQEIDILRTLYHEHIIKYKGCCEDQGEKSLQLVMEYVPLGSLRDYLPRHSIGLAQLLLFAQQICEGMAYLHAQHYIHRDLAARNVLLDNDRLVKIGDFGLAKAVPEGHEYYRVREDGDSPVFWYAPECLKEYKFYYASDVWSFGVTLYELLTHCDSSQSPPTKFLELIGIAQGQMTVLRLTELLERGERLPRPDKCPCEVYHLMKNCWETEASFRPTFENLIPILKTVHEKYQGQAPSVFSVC", "description": "as §1"}, "TYRO3": {"target": "TYRO3 (Homo sapiens, UniProt Q06418)", "description": "as §1"}, "YES1": {"target": "YES1 (Homo sapiens, UniProt P07947)", "sequence (P07947 whole entry)": "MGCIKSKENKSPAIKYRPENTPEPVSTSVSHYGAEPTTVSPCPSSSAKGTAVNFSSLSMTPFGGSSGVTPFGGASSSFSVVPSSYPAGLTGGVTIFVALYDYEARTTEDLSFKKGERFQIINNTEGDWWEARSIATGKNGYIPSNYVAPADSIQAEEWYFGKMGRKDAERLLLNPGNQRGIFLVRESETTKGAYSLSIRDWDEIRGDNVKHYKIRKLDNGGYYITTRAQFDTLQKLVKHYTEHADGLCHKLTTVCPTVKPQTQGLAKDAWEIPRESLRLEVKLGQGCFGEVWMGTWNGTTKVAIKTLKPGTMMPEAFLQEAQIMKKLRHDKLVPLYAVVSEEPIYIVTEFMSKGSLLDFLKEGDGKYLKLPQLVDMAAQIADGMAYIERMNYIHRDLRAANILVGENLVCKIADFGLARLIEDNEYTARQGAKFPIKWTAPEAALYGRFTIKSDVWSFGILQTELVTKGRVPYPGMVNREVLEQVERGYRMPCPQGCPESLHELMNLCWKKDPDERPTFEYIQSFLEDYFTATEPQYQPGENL", "description": "as §1"}, "ZAP70": {"target": "ZAP70 (Homo sapiens, UniProt P43403)", "sequence (P43403 whole entry)": "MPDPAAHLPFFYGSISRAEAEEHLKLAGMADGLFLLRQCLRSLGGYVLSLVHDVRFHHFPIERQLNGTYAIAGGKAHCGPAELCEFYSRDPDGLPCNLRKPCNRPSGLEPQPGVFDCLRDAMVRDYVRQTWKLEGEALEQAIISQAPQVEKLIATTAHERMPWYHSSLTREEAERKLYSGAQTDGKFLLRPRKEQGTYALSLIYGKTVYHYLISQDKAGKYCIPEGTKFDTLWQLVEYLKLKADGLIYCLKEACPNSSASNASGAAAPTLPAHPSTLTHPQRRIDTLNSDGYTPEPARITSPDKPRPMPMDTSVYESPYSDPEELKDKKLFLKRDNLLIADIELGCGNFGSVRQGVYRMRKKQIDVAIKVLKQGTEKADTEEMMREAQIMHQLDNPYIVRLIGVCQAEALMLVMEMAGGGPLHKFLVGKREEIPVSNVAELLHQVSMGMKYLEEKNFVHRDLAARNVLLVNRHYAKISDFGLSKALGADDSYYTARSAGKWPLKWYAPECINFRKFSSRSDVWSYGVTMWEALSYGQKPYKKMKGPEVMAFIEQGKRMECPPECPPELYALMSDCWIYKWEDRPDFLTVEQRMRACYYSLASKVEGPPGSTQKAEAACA", "description": "as §1"}}}
{"compound": "CCS(=O)(=O)Cc1cnc(Oc2c(F)cc(F)cc2OCCCCOc2ccc(/C=C/c3cc(OC)cc(OC)c3)cc2)c(-c2cc(C)c3c(=O)[nH]ccn23)c1", "note": "[BST-4]", "values": [{"measurement": "IC50", "setting": "ABL2", "value": "> 10", "unit": "µM"}, {"measurement": "inhibition at 1 µM", "setting": "ABL2", "value": 0.44, "unit": "%"}, {"measurement": "IC50", "setting": "CSK", "value": "> 10", "unit": "µM"}, {"measurement": "inhibition at 1 µM", "setting": "CSK", "value": 0.74, "unit": "%"}, {"measurement": "IC50", "setting": "EGFR", "value": "> 10", "unit": "µM"}, {"measurement": "inhibition at 1 µM", "setting": "EGFR", "value": 0.37, "unit": "%"}, {"measurement": "IC50", "setting": "EPHA1", "value": "> 10", "unit": "µM"}, {"measurement": "inhibition at 1 µM", "setting": "EPHA1", "value": 0.02, "unit": "%"}, {"measurement": "IC50", "setting": "EPHA2", "value": "> 10", "unit": "µM"}, {"measurement": "inhibition at 1 µM", "setting": "EPHA2", "value": 0.5, "unit": "%"}, {"measurement": "IC50", "setting": "EPHA3", "value": "> 10", "unit": "µM"}, {"measurement": "inhibition at 1 µM", "setting": "EPHA3", "value": 0.89, "unit": "%"}, {"measurement": "IC50", "setting": "EPHA5", "value": "> 10", "unit": "µM"}, {"measurement": "inhibition at 1 µM", "setting": "EPHA5", "value": 3.17, "unit": "%"}, {"measurement": "IC50", "setting": "EPHB2", "value": "> 10", "unit": "µM"}, {"measurement": "inhibition at 1 µM", "setting": "EPHB2", "value": 0.51, "unit": "%"}, {"measurement": "IC50", "setting": "EPHB3", "value": "> 10", "unit": "µM"}, {"measurement": "inhibition at 1 µM", "setting": "EPHB3", "value": 0.98, "unit": "%"}, {"measurement": "IC50", "setting": "EPHB4", "value": "> 10", "unit": "µM"}, {"measurement": "inhibition at 1 µM", "setting": "EPHB4", "value": 0.97, "unit": "%"}, {"measurement": "IC50", "setting": "ERBB2", "value": "> 10", "unit": "µM"}, {"measurement": "inhibition at 1 µM", "setting": "ERBB2", "value": 4.43, "unit": "%"}, {"measurement": "IC50", "setting": "ERBB4", "value": "> 10", "unit": "µM"}, {"measurement": "inhibition at 1 µM", "setting": "ERBB4", "value": 0.78, "unit": "%"}, {"measurement": "IC50", "setting": "ITK", "value": "> 10", "unit": "µM"}, {"measurement": "inhibition at 1 µM", "setting": "ITK", "value": 0.75, "unit": "%"}, {"measurement": "IC50", "setting": "JAK3", "value": "> 10", "unit": "µM"}, {"measurement": "inhibition at 1 µM", "setting": "JAK3", "value": 0.39, "unit": "%"}, {"measurement": "IC50", "setting": "KDR", "value": "> 10", "unit": "µM"}, {"measurement": "inhibition at 1 µM", "setting": "KDR", "value": 1.51, "unit": "%"}, {"measurement": "IC50", "setting": "LTK", "value": "> 10", "unit": "µM"}, {"measurement": "inhibition at 1 µM", "setting": "LTK", "value": 0.21, "unit": "%"}, {"measurement": "IC50", "setting": "LYN", "value": "> 10", "unit": "µM"}, {"measurement": "inhibition at 1 µM", "setting": "LYN", "value": 1.96, "unit": "%"}, {"measurement": "IC50", "setting": "MERTK", "value": "> 10", "unit": "µM"}, {"measurement": "inhibition at 1 µM", "setting": "MERTK", "value": 0.07, "unit": "%"}, {"measurement": "IC50", "setting": "MET", "value": "> 10", "unit": "µM"}, {"measurement": "inhibition at 1 µM", "setting": "MET", "value": 0.68, "unit": "%"}, {"measurement": "IC50", "setting": "MST1R", "value": "> 10", "unit": "µM"}, {"measurement": "inhibition at 1 µM", "setting": "MST1R", "value": 5.02, "unit": "%"}, {"measurement": "IC50", "setting": "NTRK2", "value": "> 10", "unit": "µM"}, {"measurement": "inhibition at 1 µM", "setting": "NTRK2", "value": 1.22, "unit": "%"}, {"measurement": "IC50", "setting": "PTK2", "value": "> 10", "unit": "µM"}, {"measurement": "inhibition at 1 µM", "setting": "PTK2", "value": 1.48, "unit": "%"}, {"measurement": "IC50", "setting": "PTK2B", "value": "> 10", "unit": "µM"}, {"measurement": "inhibition at 1 µM", "setting": "PTK2B", "value": 0.73, "unit": "%"}, {"measurement": "IC50", "setting": "PTK6", "value": "> 10", "unit": "µM"}, {"measurement": "inhibition at 1 µM", "setting": "PTK6", "value": 2.34, "unit": "%"}, {"measurement": "IC50", "setting": "ROS1", "value": "> 10", "unit": "µM"}, {"measurement": "inhibition at 1 µM", "setting": "ROS1", "value": 0.97, "unit": "%"}, {"measurement": "IC50", "setting": "SYK", "value": "> 10", "unit": "µM"}, {"measurement": "inhibition at 1 µM", "setting": "SYK", "value": 1.92, "unit": "%"}, {"measurement": "IC50", "setting": "TEC", "value": "> 10", "unit": "µM"}, {"measurement": "inhibition at 1 µM", "setting": "TEC", "value": 0.67, "unit": "%"}, {"measurement": "IC50", "setting": "TNK2", "value": "> 10", "unit": "µM"}, {"measurement": "inhibition at 1 µM", "setting": "TNK2", "value": 0.93, "unit": "%"}, {"measurement": "IC50", "setting": "TYK2", "value": "> 10", "unit": "µM"}, {"measurement": "inhibition at 1 µM", "setting": "TYK2", "value": 5.33, "unit": "%"}, {"measurement": "IC50", "setting": "TYRO3", "value": "> 10", "unit": "µM"}, {"measurement": "inhibition at 1 µM", "setting": "TYRO3", "value": 0.04, "unit": "%"}, {"measurement": "IC50", "setting": "YES1", "value": "> 10", "unit": "µM"}, {"measurement": "inhibition at 1 µM", "setting": "YES1", "value": 1.22, "unit": "%"}, {"measurement": "IC50", "setting": "ZAP70", "value": "> 10", "unit": "µM"}, {"measurement": "inhibition at 1 µM", "setting": "ZAP70", "value": 0.68, "unit": "%"}]}
